# According to US20260364214A1, “MULTIVALENT FIBROBLAST ACTIVATION PROTEIN LIGANDS FOR TARGETED DELIVERY APPLICATIONS” (Philochem AG, priority 2022, published 2026):
# Key:
# [1] = Tolerability (body weight change) of 177Lu conjugates; format: in vivo, mouse (athymic Balb/c AnNRj-Foxn1); settings: single administration, 250 nmol/kg, 250 MBq/kg
# Description: The anti-cancer efficacy of ^177Lu-ESV6, ^177Lu-Bi-ESV6 and ^177Lu-Tri-ESV6 was assessed in athymic Balb/c AnNRj-Foxn1 mice bearing SK-RC-52.hFAP tumor in the right flank. ^177Lu-ESV6, ^177Lu-Bi-ESV6 or ^177Lu-Tri-ESV6 were intravenously administered at a dose of 250 nmol/kg, 250 MBq/kg (single administration on day 9 after tumor implantation). Therapy experiments started when the average volume of established tumors had reached 100-150 mm^3. Body weight of the animals and tumor volume were daily measured and recorded. Tumor dimensions were measured with an electronic caliper and tumor volume was calculated with the formula (long side, mm)×(short side, mm)×(short side, mm)×0.5. Animals were euthanized when one or more termination criterium indicated by the experimental license was reached. Prism 7 software (GraphPad Software) was used for data analysis.
# SK-RC-52.hFAP tumors = experiment: Quantitative biodistribution in SK-RC-52.hFAP tumor bearing mice; format: in vivo, mouse (female athymic Balb/c AnNRj-Foxn1); settings: i.v. 250 nmol/kg, 50 MBq/kg
# Summary of the method: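 Female athymic Balb/c nude mice carried subcutaneous SK-RC-52.hFAP tumors (5 million cells, ~300 mm^3). 177Lu-labeled conjugates were given i.v. at 250 nmol/kg, 50 MBq/kg. Tissues gamma-counted at several time points as %ID/g±SD, tumor values corrected for growth rate; tumor-to-organ ratios derived.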
smiles,measurement,setting,value
"N#CC1CC(F)(F)CN1C(=O)CNC(=O)c1ccnc2c(NC(=O)CCC(=O)NCCCCC(NC(=O)CCC(=O)Nc3cccc4c(C(=O)NCC(=O)N5CC(F)(F)CC5C#N)ccnc34)C(=O)NCCNC(=O)CCC(C(=O)O)N3CCN(CC(=O)[O-])CCN(CC(=O)[O-])CCN(CC(=O)[O-])CC3)cccc12.[177Lu+3] (stereo not shown) [^177Lu-Bi-ESV6-DOTAGA, reference compound]","tolerability (body weight change), in words",[1],very well tolerated
same,"Tumor to organs ratio, Blood",SK-RC-52.hFAP tumors; 24 h,270.81
same,"Injected dose per gram, Blood",SK-RC-52.hFAP tumors; 24 h post injection,0.05 % ID/g
same,"Tumor to organs ratio, Blood",SK-RC-52.hFAP tumors; 48 h,4240.99
same,"Injected dose per gram, Blood",SK-RC-52.hFAP tumors; 48 h post injection,0.00 % ID/g
same,"Tumor to organs ratio, Blood",SK-RC-52.hFAP tumors; 72 h,2515.44
same,"Injected dose per gram, Blood",SK-RC-52.hFAP tumors; 72 h post injection,0.00 % ID/g
same,"Tumor to organs ratio, Heart",SK-RC-52.hFAP tumors; 24 h,342.92
same,"Injected dose per gram, Heart",SK-RC-52.hFAP tumors; 24 h post injection,0.05 % ID/g
same,"Tumor to organs ratio, Heart",SK-RC-52.hFAP tumors; 48 h,1206.24
same,"Injected dose per gram, Heart",SK-RC-52.hFAP tumors; 48 h post injection,0.01 % ID/g
same,"Tumor to organs ratio, Heart",SK-RC-52.hFAP tumors; 72 h,203.58
same,"Injected dose per gram, Heart",SK-RC-52.hFAP tumors; 72 h post injection,0.04 % ID/g
same,"Tumor to organs ratio, Intestine",SK-RC-52.hFAP tumors; 24 h,298.43
same,"Injected dose per gram, Intestine",SK-RC-52.hFAP tumors; 24 h post injection,0.05 % ID/g
same,"Tumor to organs ratio, Intestine",SK-RC-52.hFAP tumors; 48 h,458.76
same,"Injected dose per gram, Intestine",SK-RC-52.hFAP tumors; 48 h post injection,0.03 % ID/g
same,"Tumor to organs ratio, Intestine",SK-RC-52.hFAP tumors; 72 h,544.57
same,"Injected dose per gram, Intestine",SK-RC-52.hFAP tumors; 72 h post injection,0.06 % ID/g
same,"Tumor to organs ratio, Kidney",SK-RC-52.hFAP tumors; 24 h,14.96
same,"Injected dose per gram, Kidney",SK-RC-52.hFAP tumors; 24 h post injection,0.96 % ID/g
same,"Tumor to organs ratio, Kidney",SK-RC-52.hFAP tumors; 48 h,17.41
same,"Injected dose per gram, Kidney",SK-RC-52.hFAP tumors; 48 h post injection,0.47 % ID/g
same,"Tumor to organs ratio, Kidney",SK-RC-52.hFAP tumors; 72 h,12.21
same,"Injected dose per gram, Kidney",SK-RC-52.hFAP tumors; 72 h post injection,0.66 % ID/g
same,"Tumor to organs ratio, Liver",SK-RC-52.hFAP tumors; 24 h,48.81
same,"Injected dose per gram, Liver",SK-RC-52.hFAP tumors; 24 h post injection,0.29 % ID/g
same,"Tumor to organs ratio, Liver",SK-RC-52.hFAP tumors; 48 h,51.30
same,"Injected dose per gram, Liver",SK-RC-52.hFAP tumors; 48 h post injection,0.16 % ID/g
same,"Tumor to organs ratio, Liver",SK-RC-52.hFAP tumors; 72 h,28.14
same,"Injected dose per gram, Liver",SK-RC-52.hFAP tumors; 72 h post injection,0.29 % ID/g
same,"Tumor to organs ratio, Lung",SK-RC-52.hFAP tumors; 24 h,184.57
same,"Injected dose per gram, Lung",SK-RC-52.hFAP tumors; 24 h post injection,0.08 % ID/g
same,"Tumor to organs ratio, Lung",SK-RC-52.hFAP tumors; 48 h,300.13
same,"Injected dose per gram, Lung",SK-RC-52.hFAP tumors; 48 h post injection,0.03 % ID/g
same,"Tumor to organs ratio, Lung",SK-RC-52.hFAP tumors; 72 h,517.13
same,"Injected dose per gram, Lung",SK-RC-52.hFAP tumors; 72 h post injection,0.06 % ID/g
same,"Tumor to organs ratio, Muscle",SK-RC-52.hFAP tumors; 24 h,135.38
same,"Injected dose per gram, Muscle",SK-RC-52.hFAP tumors; 24 h post injection,0.12 % ID/g
same,"Tumor to organs ratio, Muscle",SK-RC-52.hFAP tumors; 48 h,270.58
same,"Injected dose per gram, Muscle",SK-RC-52.hFAP tumors; 48 h post injection,0.05 % ID/g
same,"Tumor to organs ratio, Muscle",SK-RC-52.hFAP tumors; 72 h,140.83
same,"Injected dose per gram, Muscle",SK-RC-52.hFAP tumors; 72 h post injection,0.08 % ID/g
same,"Tumor to organs ratio, Spleen",SK-RC-52.hFAP tumors; 24 h,125.34
same,"Injected dose per gram, Spleen",SK-RC-52.hFAP tumors; 24 h post injection,0.11 % ID/g
same,"Tumor to organs ratio, Spleen",SK-RC-52.hFAP tumors; 48 h,133.66
same,"Injected dose per gram, Spleen",SK-RC-52.hFAP tumors; 48 h post injection,0.07 % ID/g
same,"Tumor to organs ratio, Spleen",SK-RC-52.hFAP tumors; 72 h,61.08
same,"Injected dose per gram, Spleen",SK-RC-52.hFAP tumors; 72 h post injection,0.14 % ID/g
same,"Tumor to organs ratio, Tail",SK-RC-52.hFAP tumors; 24 h,69.69
same,"Injected dose per gram, Tail",SK-RC-52.hFAP tumors; 24 h post injection,0.22 % ID/g
same,"Tumor to organs ratio, Tail",SK-RC-52.hFAP tumors; 48 h,187.42
same,"Injected dose per gram, Tail",SK-RC-52.hFAP tumors; 48 h post injection,0.07 % ID/g
same,"Tumor to organs ratio, Tail",SK-RC-52.hFAP tumors; 72 h,64.13
same,"Injected dose per gram, Tail",SK-RC-52.hFAP tumors; 72 h post injection,0.12 % ID/g
same,"Injected dose per gram, Tumor",SK-RC-52.hFAP tumors; 24 h post injection,14.29 % ID/g
same,"Injected dose per gram, Tumor",SK-RC-52.hFAP tumors; 48 h post injection,8.10 % ID/g
same,"Injected dose per gram, Tumor",SK-RC-52.hFAP tumors; 72 h post injection,8.00 % ID/g
"N#C[C@@H]1CC(F)(F)CN1C(=O)CNC(=O)c1ccnc2c(NC(=O)CCC(=O)NCCNC(=O)CCC(C(=O)O)N3CCN(CC(=O)[O-])CCN(CC(=O)[O-])CCN(CC(=O)[O-])CC3)cccc12.[177Lu+3] (stereo partly shown) [^177Lu-ESV6-DOTAGA, reference compound]","tolerability (body weight change), in words",[1],very well tolerated
same,"Tumor to organs ratio, Blood",SK-RC-52.hFAP tumors; 24 h,628.54
same,"Injected dose per gram, Blood",SK-RC-52.hFAP tumors; 24 h post injection,0.00 % ID/g
same,"Tumor to organs ratio, Blood",SK-RC-52.hFAP tumors; 48 h,2173.00
same,"Injected dose per gram, Blood",SK-RC-52.hFAP tumors; 48 h post injection,0.00 % ID/g
same,"Tumor to organs ratio, Heart",SK-RC-52.hFAP tumors; 24 h,497.97
same,"Injected dose per gram, Heart",SK-RC-52.hFAP tumors; 24 h post injection,0.01 % ID/g
same,"Tumor to organs ratio, Heart",SK-RC-52.hFAP tumors; 48 h,314.15
same,"Injected dose per gram, Heart",SK-RC-52.hFAP tumors; 48 h post injection,0.00 % ID/g
same,"Tumor to organs ratio, Intestine",SK-RC-52.hFAP tumors; 24 h,240.54
same,"Injected dose per gram, Intestine",SK-RC-52.hFAP tumors; 24 h post injection,0.01 % ID/g
same,"Tumor to organs ratio, Intestine",SK-RC-52.hFAP tumors; 48 h,232.61
same,"Injected dose per gram, Intestine",SK-RC-52.hFAP tumors; 48 h post injection,0.01 % ID/g
same,"Tumor to organs ratio, Kidney",SK-RC-52.hFAP tumors; 24 h,5.41
same,"Injected dose per gram, Kidney",SK-RC-52.hFAP tumors; 24 h post injection,0.47 % ID/g
same,"Tumor to organs ratio, Kidney",SK-RC-52.hFAP tumors; 48 h,4.22
same,"Injected dose per gram, Kidney",SK-RC-52.hFAP tumors; 48 h post injection,0.28 % ID/g
same,"Tumor to organs ratio, Liver",SK-RC-52.hFAP tumors; 24 h,37.66
same,"Injected dose per gram, Liver",SK-RC-52.hFAP tumors; 24 h post injection,0.07 % ID/g
same,"Tumor to organs ratio, Liver",SK-RC-52.hFAP tumors; 48 h,20.54
same,"Injected dose per gram, Liver",SK-RC-52.hFAP tumors; 48 h post injection,0.06 % ID/g
same,"Tumor to organs ratio, Lung",SK-RC-52.hFAP tumors; 24 h,977.01
same,"Injected dose per gram, Lung",SK-RC-52.hFAP tumors; 24 h post injection,0.01 % ID/g
same,"Tumor to organs ratio, Lung",SK-RC-52.hFAP tumors; 48 h,805.04
same,"Injected dose per gram, Lung",SK-RC-52.hFAP tumors; 48 h post injection,0.01 % ID/g
same,"Tumor to organs ratio, Muscle",SK-RC-52.hFAP tumors; 24 h,159.12
same,"Injected dose per gram, Muscle",SK-RC-52.hFAP tumors; 24 h post injection,0.03 % ID/g
same,"Tumor to organs ratio, Muscle",SK-RC-52.hFAP tumors; 48 h,142.88
same,"Injected dose per gram, Muscle",SK-RC-52.hFAP tumors; 48 h post injection,0.01 % ID/g
same,"Tumor to organs ratio, Spleen",SK-RC-52.hFAP tumors; 24 h,158.68
same,"Injected dose per gram, Spleen",SK-RC-52.hFAP tumors; 24 h post injection,0.03 % ID/g
same,"Tumor to organs ratio, Spleen",SK-RC-52.hFAP tumors; 48 h,503.00
same,"Injected dose per gram, Spleen",SK-RC-52.hFAP tumors; 48 h post injection,0.01 % ID/g
same,"Tumor to organs ratio, Tail",SK-RC-52.hFAP tumors; 24 h,48.95
same,"Injected dose per gram, Tail",SK-RC-52.hFAP tumors; 24 h post injection,0.05 % ID/g
same,"Tumor to organs ratio, Tail",SK-RC-52.hFAP tumors; 48 h,45.61
same,"Injected dose per gram, Tail",SK-RC-52.hFAP tumors; 48 h post injection,0.03 % ID/g
same,"Injected dose per gram, Tumor",SK-RC-52.hFAP tumors; 24 h post injection,2.53 % ID/g
same,"Injected dose per gram, Tumor",SK-RC-52.hFAP tumors; 48 h post injection,1.19 % ID/g
